Results as given in ChEMBL document CHEMBL1201862, “PubChem BioAssay data set” (2004).
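Step 1: Grow cells in 96-well plates. Step 2: Expose to compound for 48 hours at 5 concentrations. Step 3: Interpolate endpoints linearly; if unreached, use highest concentration. GI50 marks 50% less growth.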 Active and inactive are the calls of the source. Cut-off read from the data, not from the text of the source: active = GI50 up to about 1.1 µM and inactive = higher.

Experiments:
Experiment in all cases: inhibition of tumour cell growth, NCI panel, 48 h
A549 = tested on: A549
SNB-75 = tested on: SNB-75
SR = tested on: SR
MDA-MB-435 = tested on: MDA-MB-435
SF-295 = tested on: SF-295
PC-3 = tested on: PC-3
MCF7 = tested on: MCF7
SK-OV-3 = tested on: SK-OV-3
UO-31 = tested on: UO-31
SF-539 = tested on: SF-539
CCRF-CEM = tested on: CCRF-CEM
ACHN = tested on: ACHN
HOP-92 = tested on: HOP-92
UACC-257 = tested on: UACC-257
HCC 2998 = tested on: HCC 2998
HOP-62 = tested on: HOP-62
OVCAR-5 = tested on: OVCAR-5
KM12 = tested on: KM12
NCI-H226 = tested on: NCI-H226
T47D = tested on: T47D

Measured: GI50

CCCCCCCC(=O)OC[n+]1cccc(-c2c(COC(=O)NC(C)C)c(COC(=O)NC(C)C)c3n2CCC3)c1
inactive: A549 > 96.2 µM | SNB-75 > 78 µM | SR 12.8 µM | MDA-MB-435 > 100 µM | SF-295 > 84.1 µM | PC-3 > 88.3 µM | MCF7 45.6 µM | SK-OV-3 > 100 µM | UO-31 62.8 µM | SF-539 33.7 µM | CCRF-CEM 21.2 µM | ACHN 34 µM | HOP-92 44.8 µM | UACC-257 > 100 µM | HCC 2998 > 100 µM | HOP-62 > 63.1 µM | OVCAR-5 > 100 µM | KM12 > 100 µM | NCI-H226 97.5 µM | T47D > 93.3 µM

O=S(=O)(NC1OCCCC1I)c1ccccc1 (stereo not given)
inactive: A549 > 100 µM | SNB-75 > 100 µM | SR > 100 µM | MDA-MB-435 > 100 µM | SF-295 > 100 µM | PC-3 > 100 µM | MCF7 > 100 µM | SK-OV-3 > 100 µM | UO-31 > 100 µM | SF-539 > 100 µM | CCRF-CEM 68.4 µM | ACHN > 100 µM | HOP-92 > 100 µM | UACC-257 > 100 µM | HCC 2998 > 100 µM | HOP-62 > 100 µM | OVCAR-5 > 100 µM | KM12 > 100 µM | NCI-H226 > 100 µM | T47D > 100 µM

COc1ccc(Cc2nc3cc(Cl)ccc3o2)cc1
inactive: A549 35.4 µM | SNB-75 13.1 µM | SR 23.7 µM | MDA-MB-435 22.1 µM | SF-295 31.3 µM | PC-3 32.3 µM | MCF7 27.9 µM | SK-OV-3 47.3 µM | UO-31 33.3 µM | SF-539 45.1 µM | CCRF-CEM 12.2 µM | ACHN 59 µM | HOP-92 41.2 µM | UACC-257 24 µM | HCC 2998 20.8 µM | HOP-62 > 100 µM | OVCAR-5 50.6 µM | KM12 27.7 µM | NCI-H226 21.5 µM | T47D 21.3 µM
